From publication PMC9603770, “Broad-Spectrum Inhibitors against Class A, B, and C Type β-Lactamases to Block the Hydrolysis against Antibiotics: Kinetics and Structural Characterization” (Microbiology Spectrum, 2022)
≈ marks a conversion by molar mass, not a printed value. Read-outs that look alike come from different tables or passages of the source.

How the values were obtained:
CTX-M-15 [1] = molecular target: T1, CTX-M-15 (Escherichia coli, UniProt Q9EXV5); set-up: method as in PMID 20921316; settings: cited from earlier work
T1 construct: made in house; host or cells: E. coli (DH5 and BL21(DE3) named)
T1 sequence (Q9EXV5 29-291, species assumed): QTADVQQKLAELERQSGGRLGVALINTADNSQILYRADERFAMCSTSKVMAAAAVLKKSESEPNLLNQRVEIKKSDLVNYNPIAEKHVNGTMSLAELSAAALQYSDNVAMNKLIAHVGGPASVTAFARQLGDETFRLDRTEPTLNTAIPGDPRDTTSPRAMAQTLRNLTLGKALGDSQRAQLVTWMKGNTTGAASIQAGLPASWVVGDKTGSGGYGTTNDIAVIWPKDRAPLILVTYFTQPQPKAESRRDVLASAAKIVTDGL

NDM-1 = molecular target: T2, NDM-1 (Klebsiella pneumoniae, UniProt C7C422); experiment: Steady-state kinetics of antibiotic hydrolysis with inhibitor; type: biochemical; settings: inhibitor concentration as per IC50
T2 construct: made in house; host or cells: E. coli (DH5 and BL21(DE3) named)
T2 sequence (C7C422 29-270, looked up, species assumed): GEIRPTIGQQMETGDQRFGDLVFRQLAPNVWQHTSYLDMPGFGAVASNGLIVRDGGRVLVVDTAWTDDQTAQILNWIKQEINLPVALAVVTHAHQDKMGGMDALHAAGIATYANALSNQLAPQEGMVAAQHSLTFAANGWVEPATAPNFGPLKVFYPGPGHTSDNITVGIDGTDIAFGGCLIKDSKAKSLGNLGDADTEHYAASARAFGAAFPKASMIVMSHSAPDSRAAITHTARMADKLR
Method: (§1) The enzyme kinetics parameters (Km, and kcat) for all six proteins/enzymes in combination with different antibiotics (cefotaxime, imipenem, and meropenem), were calculated. The concentration of inhibitors, D63, D2148, and D2573, was as per the IC50 value (Fig. 5); the kinetic parameters are listed in Table 8.
(§2) The steady-state kinetics of all six proteins were determined using the antibiotics:imipenem (Δε295 = −11,500 M^−1 cm^−1), meropenem (Δε297 = −10,940 M^−1 cm^−1), and cefotaxime (Δε264 = −27,250 M^−1 cm^−1). In this study, the D63, D2148, and D2573 inhibitors were tested. Hydrolysis of β-lactam antibiotics was detected by monitoring the variation in absorbance due to cleavage of the β-lactam ring in 50 mM, pH 7.0, phosphate buffer ([40], [41]). For hydrolysis of substrate (cefotaxime, imipenem, and meropenem) kinetics parameters, Km and kcat were calculated by using Michaelis Menten equations (equations 2 and 3). (2) V =Vmax [S]/Km + [S] (3) kcat = Vmax/E where E and S are the enzyme and substrate concentration, Km is the Michaelis-Mentent constant, kcat is the turnover number, and V and Vmax are the initial and maximum velocity of the hydrolysis, respectively.

Amp-C = molecular target: T3, Amp-C (Escherichia coli, UniProt P00811); experiment: as above; type: biochemical; settings: inhibitor concentration as per IC50
T3 construct: made in house; host or cells: E. coli (DH5 and BL21(DE3) named; pET-28a)
T3 sequence (P00811 20-377): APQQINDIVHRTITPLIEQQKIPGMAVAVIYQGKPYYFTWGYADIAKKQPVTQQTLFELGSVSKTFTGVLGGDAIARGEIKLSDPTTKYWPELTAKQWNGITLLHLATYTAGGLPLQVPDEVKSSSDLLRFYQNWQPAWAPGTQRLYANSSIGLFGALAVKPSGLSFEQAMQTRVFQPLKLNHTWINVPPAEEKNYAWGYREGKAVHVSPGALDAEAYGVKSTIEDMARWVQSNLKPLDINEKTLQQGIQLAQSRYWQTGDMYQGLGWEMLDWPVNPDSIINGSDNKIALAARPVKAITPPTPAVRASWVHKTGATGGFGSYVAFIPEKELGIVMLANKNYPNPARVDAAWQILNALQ
Method: as §1, §2

SHV-1 = molecular target: T4, SHV-1 (Klebsiella pneumoniae, UniProt P0AD64); experiment: as above; type: biochemical; settings: inhibitor concentration as per IC50
T4 construct: made in house; host or cells: E. coli (DH5 and BL21(DE3) named; pET-28a)
T4 sequence (P0AD64 22-286): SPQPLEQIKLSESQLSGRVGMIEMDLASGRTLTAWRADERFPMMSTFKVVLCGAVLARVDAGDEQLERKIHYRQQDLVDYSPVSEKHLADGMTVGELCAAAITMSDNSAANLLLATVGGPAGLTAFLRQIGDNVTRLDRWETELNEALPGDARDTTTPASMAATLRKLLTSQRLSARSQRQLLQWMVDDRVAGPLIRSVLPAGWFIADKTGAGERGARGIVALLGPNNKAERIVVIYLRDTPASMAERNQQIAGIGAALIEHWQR
Method: as §1, §2

CTX-M-15 [2] = molecular target: T1, CTX-M-15; experiment: as above; type: biochemical; settings: inhibitor concentration as per IC50
Method: as §1, §2

TEM-1 = molecular target: T5, TEM-1 (Escherichia coli, UniProt P62593); experiment: as above; type: biochemical; settings: inhibitor concentration as per IC50
T5 construct: made in house; host or cells: E. coli (DH5 and BL21(DE3) named; pET-28a)
T5 sequence (P62593 24-286 limits assumed): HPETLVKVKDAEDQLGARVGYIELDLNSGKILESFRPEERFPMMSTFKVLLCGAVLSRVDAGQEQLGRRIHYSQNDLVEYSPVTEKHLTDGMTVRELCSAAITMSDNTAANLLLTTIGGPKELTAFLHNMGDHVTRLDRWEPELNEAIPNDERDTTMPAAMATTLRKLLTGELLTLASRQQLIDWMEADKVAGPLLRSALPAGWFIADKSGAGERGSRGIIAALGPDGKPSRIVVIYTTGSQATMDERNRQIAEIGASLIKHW
Method: as §1, §2

KPC-2 = molecular target: T6, KPC-2 (Klebsiella pneumoniae, UniProt Q9F663); experiment: as above; type: biochemical; settings: inhibitor concentration as per IC50
T6 construct: made in house; host or cells: E. coli (DH5 and BL21(DE3) named; pET-28a)
T6 sequence (Q9F663 25-293, looked up, species assumed): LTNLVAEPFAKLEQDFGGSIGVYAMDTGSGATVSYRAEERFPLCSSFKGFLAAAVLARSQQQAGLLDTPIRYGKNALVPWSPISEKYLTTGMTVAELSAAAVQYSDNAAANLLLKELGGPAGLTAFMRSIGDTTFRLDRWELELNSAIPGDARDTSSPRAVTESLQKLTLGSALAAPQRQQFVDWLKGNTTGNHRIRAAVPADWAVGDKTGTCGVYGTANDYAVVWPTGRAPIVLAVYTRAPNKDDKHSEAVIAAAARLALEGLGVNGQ
Method: as §1, §2

[3] = system: E. coli DH5α cells with blaCTX-M-15 clone; experiment: microbe, parasite or virus in culture; type: cell-based; settings: Escherichia coli
Method: (§3) The blaSHV-1, blaTEM-1, blaKPC-2, and blaAmp-C genes were cloned in the pET-28a vector individually, followed by its transformation in Escherichia coli DH5α cells. The MIC values was determined for clinical strains (AK-10, AK-12, AK-18, NP-6, AK-67, and AK-66) and E. coli DH5α cells with selected clones (blaSHV-1, blaTEM-1, blaKPC-2, blaAmp-C, blaCTX-M-15, and blaNDM-1) carrying vectors individually.
(§4) In a series of 2-fold dilutions, E. coli cells were given escalating doses of antibiotics from 0 to 512 μg/mL.

[4] = system: E. coli DH5α cells with blaSHV-1 clone; experiment: microbe, parasite or virus in culture; type: cell-based; settings: Escherichia coli
Method: as §3, §4

[5] = system: E. coli DH5α cells with blaKPC-2 clone; experiment: microbe, parasite or virus in culture; type: cell-based; settings: Escherichia coli
Method: as §3, §4

[6] = system: E. coli DH5α cells with blaAmp-C clone; experiment: microbe, parasite or virus in culture; type: cell-based; settings: Escherichia coli
Method: as §3, §4

[7] = system: E. coli DH5α cells with blaNDM-1 clone; experiment: microbe, parasite or virus in culture; type: cell-based; settings: Escherichia coli
Method: as §3, §4

[8] = system: E. coli DH5α cells with blaTEM-1 clone; experiment: microbe, parasite or virus in culture; type: cell-based; settings: Escherichia coli
Method: as §3, §4

clinical strain AK-18 = experiment: MIC, microdilution; type: cell-based
Method: as §3, §4

clinical strain AK-10 = experiment: MIC, microdilution; type: cell-based
Method: as §3, §4

clinical strain AK-66 = experiment: MIC, microdilution; type: cell-based
Method: as §3, §4

clinical strain NP-6 = experiment: MIC, microdilution; type: cell-based
Method: as §3, §4

clinical strain AK-67 = experiment: MIC, microdilution; type: cell-based
Method: as §3, §4

[9] = clinical strain AK-66, read-out: MIC

SMILES: NC(=O)[C@@H]1CC[C@@H]2CN1C(=O)N2OS(=O)(=O)O [Avibactam, reference compound]
- IC50 (CTX-M-15 [1]): 5 nM
- Km or Ki (NDM-1; cefotaxime): 212.2 μΜ
- kcat (NDM-1; cefotaxime): 1.036 S^−1
- Km or Ki (NDM-1; imipenem): 615.5 μΜ
- kcat (NDM-1; imipenem): 2.194 S^−1
- Km or Ki (NDM-1; meropenem): 440.9 μΜ
- kcat (NDM-1; meropenem): 1.268 S^−1
- Km or Ki (Amp-C; cefotaxime): 1,199 μΜ
- kcat (Amp-C; cefotaxime): 1.417 S^−1
- Km or Ki (Amp-C; imipenem): 321 μΜ
- kcat (Amp-C; imipenem): 0.861 S^−1
- Km or Ki (Amp-C; meropenem): 1,442 μΜ
- kcat (Amp-C; meropenem): 2.213 S^−1
- Km or Ki (SHV-1; cefotaxime): 1,201 μΜ
- kcat (SHV-1; cefotaxime): 0.6119 S^−1
- Km or Ki (SHV-1; imipenem): 835.4 μΜ
- kcat (SHV-1; imipenem): 0.5531 S^−1
- Km or Ki (SHV-1; meropenem): 532 μΜ
- kcat (SHV-1; meropenem): 0.4803 S^−1
- Km or Ki (CTX-M-15 [2]; cefotaxime): 2047 μΜ
- kcat (CTX-M-15 [2]; cefotaxime): 1.858 S^−1
- Km or Ki (CTX-M-15 [2]; imipenem): 2,918 μΜ
- kcat (CTX-M-15 [2]; imipenem): 0.4807 S^−1
- Km or Ki (CTX-M-15 [2]; meropenem): 745.5 μΜ
- kcat (CTX-M-15 [2]; meropenem): 1.566 S^−1
- Km or Ki (TEM-1; cefotaxime): 1,558 μΜ
- kcat (TEM-1; cefotaxime): 1.339 S^−1
- Km or Ki (TEM-1; imipenem): 2,918 μΜ
- kcat (TEM-1; imipenem): 1.107 S^−1
- Km or Ki (TEM-1; meropenem): 12,315 μΜ
- kcat (TEM-1; meropenem): 5.916 S^−1
- Km or Ki (KPC-2; cefotaxime): 1299 μΜ
- kcat (KPC-2; cefotaxime): 0.549 S^−1
- Km or Ki (KPC-2; imipenem): 2,637 μΜ
- kcat (KPC-2; imipenem): 1.499 S^−1
- Km or Ki (KPC-2; meropenem): 1,740 μΜ
- kcat (KPC-2; meropenem): 0.72 S^−1

SMILES: CO/N=C(\C(=O)N[C@@H]1C(=O)N2C(C(=O)O)=C(COC(C)=O)CS[C@H]12)c1csc(N)n1 [Cefotaxime]
- MIC [3]: 512 µg/mL (≈ 1120 µM)
- MIC [4]: 4 µg/mL (≈ 8.78 µM)
- MIC [5]: 2 µg/mL (≈ 4.39 µM)
- MIC [6]: 2 µg/mL (≈ 4.39 µM)
- MIC [7]: 256 µg/mL (≈ 562 µM)
- MIC [8]: 2 µg/mL (≈ 4.39 µM)
- MIC (clinical strain AK-18): 32 µg/mL (≈ 70.3 µM)
- MIC (clinical strain AK-10): 1020 µg/mL (≈ 2250 µM)
- MIC (clinical strain AK-66): 512 µg/mL (≈ 1120 µM)
- MIC (clinical strain NP-6): 16 µg/mL (≈ 35.1 µM)
- MIC (clinical strain AK-67): 512 µg/mL (≈ 1120 µM)

SMILES: CO[C@@]1(NC(=O)Cc2cccs2)C(=O)N2C(C(=O)O)=C(COC(N)=O)CS[C@@H]21 [Cefoxitin]
- MIC [3]: 32 µg/mL (≈ 74.9 µM)
- MIC [4]: 32 µg/mL (≈ 74.9 µM)
- MIC [5]: 32 µg/mL (≈ 74.9 µM)
- MIC [6]: 32 µg/mL (≈ 74.9 µM)
- MIC [7]: 32 µg/mL (≈ 74.9 µM)
- MIC [8]: 32 µg/mL (≈ 74.9 µM)
- MIC (clinical strain AK-66; [9]): 64 µg/mL (≈ 150 µM)
- MIC (clinical strain NP-6): 64 µg/mL (≈ 150 µM)

SMILES: C[C@@H](O)[C@H]1C(=O)N2C(C(=O)O)=C(SCCN=CN)C[C@H]12 [Imipenem]
- MIC [3]: 32 µg/mL (≈ 107 µM)
- MIC [4]: 16 µg/mL (≈ 53.4 µM)
- MIC [5]: 16 µg/mL (≈ 53.4 µM)
- MIC [6]: 16 µg/mL (≈ 53.4 µM)
- MIC [7]: 512 µg/mL (≈ 1710 µM)
- MIC [8]: 16 µg/mL (≈ 53.4 µM)
- MIC (clinical strain AK-10): 128 µg/mL (≈ 428 µM)
- MIC (clinical strain AK-66; [9]): 1020 µg/mL (≈ 3420 µM)
- MIC (clinical strain NP-6): 64 µg/mL (≈ 214 µM)

SMILES: C[C@@H](O)[C@H]1C(=O)N2C(C(=O)O)=C(S[C@@H]3CN[C@H](C(=O)N(C)C)C3)[C@H](C)[C@H]12 [Meropenem]
- MIC [3]: 2 µg/mL (≈ 5.22 µM)
- MIC [4]: 2 µg/mL (≈ 5.22 µM)
- MIC [5]: 2 µg/mL (≈ 5.22 µM)
- MIC [6]: 4 µg/mL (≈ 10.4 µM)
- MIC [7]: 1020 µg/mL (≈ 2670 µM)
- MIC [8]: 2 µg/mL (≈ 5.22 µM)
- MIC (clinical strain AK-18): 32 µg/mL (≈ 83.4 µM)
- MIC (clinical strain AK-10): 32 µg/mL (≈ 83.4 µM)
- MIC (clinical strain AK-66; [9]): 1020 µg/mL (≈ 2670 µM)
- MIC (clinical strain NP-6): 16 µg/mL (≈ 41.7 µM)
